Where a name gives a salt, the structure may show the parent alone.
Columns and labels:
Assay in all cases: In vitro MMP inhibition, IC50 determination (fluorogenic substrate I)
Format in all cases: biochemical
Human recombinant MMP-9 = target: T1, Human recombinant MMP-9 (Homo sapiens, UniProt P14780)
T1 construct: made in house; host or cells: MMP-9-transfected HT1080 cells (spent media)
Experimental: (§1) Several hydroxamates and salts thereof were analyzed in in vitro assays to determine their ability to inhibit the MMP cleavage of peptide substrates. Inhibition (Ki) and IC50 constants were calculated from the assayed hydroxamate-MMP interactions.
(§2) Human recombinant MMP-1, MMP-2, MMP-9, MMP-13, and MMP-14 were used in this assay. All enzymes were prepared in Assignee's laboratories following usual laboratory procedures. Protocols for the preparation and use of these enzymes are available in the scientific literature. See, e.g., Enzyme Nomenclature (Academic Press, San Diego, Calif., 1992) (and the citations therein). See also, Frije et al., J. Biol. Chem., 26(24), 16766-73 (1994).
The MMP-9 proenzyme was purified by gelatin Sepharose chromatography from spent media of MMP-9-transfected HT1080 cells provided by Dr. Howard Welgus of Washington University (St. Louis, Mo.).
(§3) All MMPs were activated using 4-aminophenylmercuric acetate (“APMA”, Sigma Chemical, St. Louis, Mo.) or trypsin. MMP-9 also was activated using human recombinant MMP-3 (purified in Assignee's laboratory following standard cloning and purification techniques).
(§4) Two fluorogenic, methoxycoumarin-containing polypeptide substrates were used in the MMP inhibition assays:
(§5) MCA-ProLeuGlyLeuDpaAlaArgNH2 (I)
(§6) Here, “Dpa” is 3-(2,4-dinitrophenyl)-L-2,3-diaminopropionyl group, and “MCA” is 7-methoxycoumarin-4-yl acetyl. Substrate (I) was purchased from Baychem (Redwood City, Calif.), and substrate II was prepared Assignee's laboratory. Substrate I was used in the IC50 determination assays, while substrate II was used in the Ki determination assays. In the absence of MMP inhibitory activity, either substrate is cleaved at the Gly-Leu peptide bond. This cleavage separates the highly fluorogenic peptide from the 2,4-dinitrophenyl quencher, thus resulting in increase of fluorescent intensity.
(§7) The stock solutions of the assayed hydroxamates (or salts thereof) were prepared in 1% dimethyl sulfoxide (DMSO). These stock solutions were diluted in Buffer A (100 mM Tris-HCl, 100 mM NaCl, 10 mM CaCl2, 0.05% polyoxyethylene 23 lauryl ether, pH 7.5) to obtain solutions with different hydroxamate concentrations, i.e., assay solutions with different concentrations of the assayed MMP inhibitory compound. The experiment controls contained the same amount of Buffer A/DMSO as the assayed sample, but contained no hydroxamate (or salt thereof).
(§8) The assays from which the IC50 determinations were made were performed as follows. The MMPs were activated with either trypsin or APMA (4-aminophenylmercuric acetate, Sigma Chemical, St. Louis, Mo.). The assayed hydroxamate samples were, incubated in Microfluorrm White Plates (Dynatech, Chantilly, VA) and analyzed on a Perkin Elmer L550 plate reader (Norwalk, Conn.). The excitation wavelength was 328 nm, and the emission wavelength—415 nm. All samples (assayed hydroxamates and controls) were incubated in separate plates at room temperature in the presence of 4 μM of MMP substrate (I). As stated in the previous paragraph, samples containing varying concentrations of the same assayed hydroxamate were prepared. Inhibition was measured as a reduction in fluorescent intensity as a function of MMP inhibitor concentration.

Human recombinant MMP-1 = target: T2, Human recombinant MMP-1 (Homo sapiens, UniProt P03956)
T2 construct: made in house; host or cells: MMP-1-transfected HT-1080 cells (spent media)
T2 sequence (P03956 100-469): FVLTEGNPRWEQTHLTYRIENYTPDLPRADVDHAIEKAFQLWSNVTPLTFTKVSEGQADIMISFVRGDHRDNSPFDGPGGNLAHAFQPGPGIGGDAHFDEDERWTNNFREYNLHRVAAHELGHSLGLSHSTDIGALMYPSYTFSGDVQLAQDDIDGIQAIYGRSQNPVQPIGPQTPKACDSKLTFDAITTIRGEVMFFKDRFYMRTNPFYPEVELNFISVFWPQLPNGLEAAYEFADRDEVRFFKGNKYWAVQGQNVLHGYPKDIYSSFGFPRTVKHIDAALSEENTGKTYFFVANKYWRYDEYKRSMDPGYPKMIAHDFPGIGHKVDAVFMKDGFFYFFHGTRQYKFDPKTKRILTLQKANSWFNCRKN
Experimental: as §1, §2
The MMP-1 proenzyme was purified from the spent media of MMP-1-transfected HT-1080 cells provided by Dr. Harold Welgus of Washington University (St. Louis, Mo.). The protein was purified on a zinc chelating column.
as §3, §4, §5, §6, §7, §8

Human recombinant MMP-13 = target: T3, Human recombinant MMP-13 (Homo sapiens, UniProt P45452)
T3 construct: made in house; host or cells: baculovirus / insect cells
How it was run: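 Fluorescence at 415 nm (excitation 328 nm) reports Gly-Leu cleavage of 4 μM quenched methoxycoumarin peptide substrate I. Human recombinant MMP-13, activated by trypsin or APMA, was incubated at room temperature with varied inhibitor concentrations in pH 7.5 Tris/NaCl/CaCl2 buffer; IC50 derived from reduced fluorescence.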

Human recombinant MMP-2 = target: T4, Human recombinant MMP-2 (Homo sapiens, UniProt P08253)
T4 construct: made in house; host or cells: MMP-2-transfected p2AHT2 cells
T4 sequence (P08253 110-660): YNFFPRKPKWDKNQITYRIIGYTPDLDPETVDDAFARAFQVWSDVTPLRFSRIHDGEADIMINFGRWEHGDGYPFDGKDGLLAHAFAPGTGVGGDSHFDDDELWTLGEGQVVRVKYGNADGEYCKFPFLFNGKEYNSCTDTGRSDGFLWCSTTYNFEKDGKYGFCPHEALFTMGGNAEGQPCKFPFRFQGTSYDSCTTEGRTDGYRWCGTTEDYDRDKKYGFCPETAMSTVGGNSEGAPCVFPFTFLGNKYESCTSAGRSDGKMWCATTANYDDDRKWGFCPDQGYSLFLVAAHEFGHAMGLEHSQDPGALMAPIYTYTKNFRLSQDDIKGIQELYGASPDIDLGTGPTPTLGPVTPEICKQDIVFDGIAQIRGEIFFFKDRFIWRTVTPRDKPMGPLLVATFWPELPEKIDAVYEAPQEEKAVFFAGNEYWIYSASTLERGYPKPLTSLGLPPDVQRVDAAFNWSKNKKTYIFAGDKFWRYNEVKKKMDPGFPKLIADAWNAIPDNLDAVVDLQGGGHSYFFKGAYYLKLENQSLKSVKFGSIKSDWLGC
How it was run: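 APMA- or trypsin-activated recombinant MMP-2 was incubated at room temperature with serial inhibitor dilutions in Tris buffer pH 7.5 (100 mM NaCl, 10 mM CaCl2, 0.05% Brij), with DMSO from 1% stocks, and 4 μM substrate I. Cleavage was read by fluorescence at 328/415 nm; IC50 was taken from the loss of fluorescence versus inhibitor concentration.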

Human recombinant MMP-14 = target: T5, Human recombinant MMP-14 (Homo sapiens, UniProt P50281)
T5 construct: The catalytic domain enzyme was expressed in E. coli inclusion bodies, solubilized in urea; made in house
Experimental: as §1, §2
The MMP-14 full length cDNA was provided by Dr. Gregory Goldberg of Washington University (St. Louis, Mo.). The catalytic domain enzyme was expressed in E. coli inclusion bodies, solubilized in urea, purified on a preparative […] reverse phase HPLC column, and then refolded in the presence of zinc acetate and purified for use.
as §3, §4, §5, §6, §7, §8

[1] = substrate (I) 4 μM, room temperature, values not in parenthesis

T1 sequence (P14780 107-707 limits assumed): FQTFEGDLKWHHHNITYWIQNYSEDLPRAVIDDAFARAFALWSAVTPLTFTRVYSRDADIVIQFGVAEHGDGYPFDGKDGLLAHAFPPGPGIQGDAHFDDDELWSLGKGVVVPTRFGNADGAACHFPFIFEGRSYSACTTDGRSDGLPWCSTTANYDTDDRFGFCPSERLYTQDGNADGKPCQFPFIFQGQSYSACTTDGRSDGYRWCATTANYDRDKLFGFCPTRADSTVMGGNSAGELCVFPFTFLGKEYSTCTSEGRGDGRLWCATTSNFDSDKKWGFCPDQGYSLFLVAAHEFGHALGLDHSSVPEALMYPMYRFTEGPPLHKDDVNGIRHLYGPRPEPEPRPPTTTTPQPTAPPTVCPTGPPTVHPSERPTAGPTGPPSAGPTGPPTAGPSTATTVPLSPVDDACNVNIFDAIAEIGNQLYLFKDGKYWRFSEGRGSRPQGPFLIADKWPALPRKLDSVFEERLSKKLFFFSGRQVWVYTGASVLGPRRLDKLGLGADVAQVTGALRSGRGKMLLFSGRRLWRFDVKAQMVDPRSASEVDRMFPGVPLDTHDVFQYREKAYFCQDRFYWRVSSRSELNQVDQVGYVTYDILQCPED

Row | Structure (SMILES) | IC50 (Human recombinant MMP-9; [1]) [nM] | IC50 (Human recombinant MMP-1; [1]) [nM] | IC50 (Human recombinant MMP-13; [1]) [nM] | IC50 (Human recombinant MMP-2; [1]) [nM] | IC50 (Human recombinant MMP-14; [1]) [nM] | IC50 (Human recombinant MMP-9; value outside parenthesis) [nM] | IC50 (Human recombinant MMP-1; value outside parenthesis) [nM] | IC50 (Human recombinant MMP-13; value outside parenthesis) [nM] | IC50 (Human recombinant MMP-2; value outside parenthesis) [nM] | IC50 (Human recombinant MMP-14; value outside parenthesis) [nM]
1 | Cc1ccccc1-c1nnc(CCCOc2ccc(S(=O)(=O)C3(C(=O)NO)CCOCC3)cc2)o1 [Example 32, tetrahydro-N-hydroxy-4-[[4-[3-[5-(2-methylphenyl)-1,3,4-oxadiazol-2-yl]propoxy]phenyl]sulfonyl]-2H-pyran-4-carboxamide] | 4080 | > 10000 | 0.8 | 218 | > 10000 | – | – | – | – | –
2 | O=C(NO)C1(S(=O)(=O)c2ccc(OCCCSc3nc4ccccc4o3)cc2)CCOCC1 [Example 33, 4-[[4-[3-(2-benzoxazolylthio)propoxy]phenyl]sulfonyl]tetrahydro-N-N-hydroxy-2H-pyran-4-carboxamide] | 7.9 | > 10000 | 1 | 16 | 4940 | – | – | – | – | –
3 | O=C(OCCCCOc1ccc(S(=O)(=O)C2(C(=O)NO)CCOCC2)cc1)N1CCc2ccccc2C1 [Example 34] | > 10000 | 429 | 3 | 36.6 | > 10000 | – | – | – | – | –
4 | O=C1c2ccccc2C(=O)N1CCCCc1ccc(S(=O)(=O)C2(C(=O)NO)CCOCC2)cc1 [Example 35] | > 10000 | > 10000 | 3 | 600 | > 10000 | – | – | – | – | –
5 | O=C(NO)C1(S(=O)(=O)c2ccc(OCCCc3nc4ccccc4o3)cc2)CCOCC1 [Example 37, 4-[[4-[3-(2-benzoxazolyl)propoxy]phenyl]sulfonyl]tetrahydro-N-hydroxy-2H-pyran-4-carboxamide] | 449 | 8710 | 1.4 | 30.3 | > 10000 | – | – | – | – | –
6 | COCCN1CCC(C(=O)NO)(S(=O)(=O)c2ccc(OCCCSc3nc4ccccc4o3)cc2)CC1 [Example 43, 4-([4-[3-(1,3-benzoxazol-2-ylthio)propoxy]phenyl]sulfonyl)-N-hydroxy-1-(2-methoxyethyl)piperidine-4-carboxamide Hydrochloride] | 1 | > 10000 | 1 | 4.8 | 2080 | – | – | – | – | –
7 | COCCN1CCC(C(=O)NO)(S(=O)(=O)c2ccc(OCCCc3cccc(-c4ccccc4)c3)cc2)CC1 [Example 44] | 154 | > 10000 | 1.4 | 133 | 4980 | – | – | – | – | –
8 | O=C(NO)C1(S(=O)(=O)c2ccc(OCCc3cccc(-c4ccccc4)c3)cc2)CCOCC1 [Example 99] | – | – | – | – | – | 3440 | > 10000 | 0.4 | 246 | > 10000
9 | COCCN1CCC(C(=O)NO)(S(=O)(=O)c2ccc(OCCCn3nnc(-c4ccc(C(F)(F)F)cc4)n3)cc2)CC1 [Example 103] | – | – | – | – | – | 1130 | > 10000 | 0.4 | 85.8 | > 10000

Reference: patent US20040024024A1, “Aromatic sulfone hydroxamates and their use as protease inhibitors” (priority 2001, published 2004)
